Values joined by “and” are separate entries in the source; they are usually repeats but may differ in a detail not shown here. Identical values can stand only once.
Experiment: Serial tail vein bleed PK study of 2-Br-LSD and 2-Br-LSD prodrugs in SD rats; 2-Br-LSD measured in plasma
Conditions: analyte 2-Br-LSD in plasma; for AUC(0-t): AUC0-last; for half-life: T½
[1] = 2-Br-LSD 1 mg/kg IV, male SD rat, individual animal
[2] = 2-Br-LSD 4 mg/kg oral, male SD rat, individual animal
[3] = male, Sprague-Dawley, rat, plasma, iv, 1 mg/kg, 2-Br-LSD 1 mg/kg IV, male SD rat, individual animal
[4] = male, Sprague-Dawley, rat, plasma, iv, 1 mg/kg, 2-Br-LSD 1 mg/kg IV, male SD rats, mean of 3
[5] = male, Sprague-Dawley, rat, plasma, po, 4 mg/kg, 2-Br-LSD 4 mg/kg oral, male SD rat, individual animal
[6] = male, Sprague-Dawley, rat, plasma, po, 4 mg/kg, 2-Br-LSD 4 mg/kg oral, male SD rats, mean of 3

Q: Which AUC0-inf [1] does the source give for `CCN(CC)C(=O)[C@@H]1C=C2c3cccc4[nH]c(Br)c(c34)C[C@H]2N(C)C1` [Example 2-Br-LSD, (6aR,9R)-5-bromo-N,N-diethyl-7-methyl-6,6a,8,9-tetrahydro-4H-indolo[4,3-fg]quinoline-9-carboxamide] here?
A: Its AUC0-inf is 269 ng·h/mL and 308 ng·h/mL.

Q: What about the AUC0-last [1] of the same molecule?
A: The AUC0-last was 268 ng·h/mL and 304 ng·h/mL.

Q: What about the Cmax [1] of the same molecule?
A: Its Cmax is 658 ng/mL and 500 ng/mL.

Q: And the Tlast [1]?
A: The Tlast was 4.00 h.

Q: What about the T½ [1] of the same molecule?
A: Its T½ is 37.7 min and 44.8 min.

Q: What about the Tlast (2-Br-LSD 1 mg/kg IV, male SD rats, mean of 3) of the same molecule?
A: Its Tlast is 4.00 h.

Q: And the AUC0-inf [2]?
A: The AUC0-inf was 1960 ng·h/mL and 1450 ng·h/mL.

Q: And the AUC0-last [2]?
A: Its AUC0-last is 1430 ng·h/mL and 997 ng·h/mL.

Q: What about the Cmax [2] of the same molecule?
A: The Cmax was 366.0 ng/mL and 209.0 ng/mL.

Q: What about the Tlast [2] of the same molecule?
A: The Tlast was 7 h.

Q: What about the T½ [2] of the same molecule?
A: The T½ was 240 min.

Q: And the Tlast (2-Br-LSD 4 mg/kg oral, male SD rats, mean of 3)?
A: Its Tlast is 7 h.

Q: And the AUC0-inf (male, Sprague-Dawley, rat, plasma, iv, 1 mg/kg, AUC0-inf, 2-Br-LSD 1 mg/kg IV, male SD rat, individual animal)?
A: Its AUC0-inf is 280 ng·h/mL.

Q: And the AUC0-inf (male, Sprague-Dawley, rat, plasma, iv, 1 mg/kg, AUC0-inf, 2-Br-LSD 1 mg/kg IV, male SD rats, mean of 3)?
A: Its AUC0-inf is 286 ng·h/mL.

Q: And the AUC(0-t) [3]?
A: Its AUC(0-t) is 278 ng·h/mL.

Q: And the AUC(0-t) [4]?
A: The AUC(0-t) was 283 ng·h/mL.

Q: What about the Cmax (male, Sprague-Dawley, rat, plasma, iv, 1 mg/kg, Cmax, 2-Br-LSD 1 mg/kg IV, male SD rat, individual animal) of the same molecule?
A: The Cmax was 577 ng/mL.

Q: And the Cmax (male, Sprague-Dawley, rat, plasma, iv, 1 mg/kg, Cmax, 2-Br-LSD 1 mg/kg IV, male SD rats, mean of 3)?
A: The Cmax was 578 ng/mL.

Q: What about the half-life [3] of the same molecule?
A: Its half-life is 44.3 min.

Q: What about the half-life [4] of the same molecule?
A: Its half-life is 42.2 min.

Q: What about the AUC0-inf (male, Sprague-Dawley, rat, plasma, po, 4 mg/kg, AUC0-inf, 2-Br-LSD 4 mg/kg oral, male SD rat, individual animal) of the same molecule?
A: Its AUC0-inf is 1780 ng·h/mL.

Q: What about the AUC0-inf (male, Sprague-Dawley, rat, plasma, po, 4 mg/kg, AUC0-inf, 2-Br-LSD 4 mg/kg oral, male SD rats, mean of 3) of the same molecule?
A: Its AUC0-inf is 1730 ng·h/mL.

Q: What about the AUC(0-t) [5] of the same molecule?
A: The AUC(0-t) was 1350 ng·h/mL.

Q: And the AUC(0-t) [6]?
A: The AUC(0-t) was 1260 ng·h/mL.

Q: And the Cmax (male, Sprague-Dawley, rat, plasma, po, 4 mg/kg, Cmax, 2-Br-LSD 4 mg/kg oral, male SD rat, individual animal)?
A: The Cmax was 338 ng/mL.

Q: What about the Cmax (male, Sprague-Dawley, rat, plasma, po, 4 mg/kg, Cmax, 2-Br-LSD 4 mg/kg oral, male SD rats, mean of 3) of the same molecule?
A: Its Cmax is 304 ng/mL.

Q: And the half-life [5]?
A: The half-life was 216 min.

Q: What about the half-life [6] of the same molecule?
A: Its half-life is 222 min.

— US20250129064A1, “PRODRUGS OF 2-BROMO-LSD (2-BRO[…] DIETHYLAMIDE)” (Terran Biosciences Inc., priority 2022, published 2025)
